Test results as given in US20200016231A1, “BIOFILM DISRUPTING COMPOSITION” (Whiteley Corporation Pty Ltd, priority 2016, published 2020).
Where two headings read alike, the source gives them in different places.

Tested on: methicillin-sensitive Staphylococcus aureus
Test: microbe, parasite or virus in culture
Type: cell-based
Details: MSSA
Procedure: The treatments shown in column 1 of Table 4 were tested against three strains of methicillin-sensitive Staphylococcus aureus. […] The treatments shown in column 1 of Table 12 were tested against three strains of methicillin-sensitive Staphylococcus aureus.

Compound `N[C@@H](CCC(=O)N[C@@H](CS)C(=O)NCC(=O)O)C(=O)O` [GSH, glutathione] has a viability at 10000 µM (read-out: % bacterial viability, MSSA - 0800 DFU, GSH 10 mM) of 82.4%, a viability at 15000 µM (read-out: % bacterial viability, MSSA - 0800 DFU, GSH 15 mM) of 61.7% and a viability at 30000 µM (read-out: % bacterial viability, MSSA - 0800 DFU, GSH 30 mM) of 20.1%. For the same compound, the viability at 10000 µM (read-out: % bacterial viability, MSSA - 34397 Left elbow, GSH 10 mM) was 88.7%, the viability at 15000 µM (read-out: % bacterial viability, MSSA - 34397 Left elbow, GSH 15 mM) was 61.3% and the viability at 30000 µM (read-out: % bacterial viability, MSSA - 34397 Left elbow, GSH 30 mM) was 1.06%. The viability at 10000 µM (read-out: % bacterial viability, MSSA - 34654 Right toe, GSH 10 mM) was 86.1%, the viability at 15000 µM (read-out: % bacterial viability, MSSA - 34654 Right toe, GSH 15 mM) was 70.5% and the viability at 30000 µM (read-out: % bacterial viability, MSSA - 34654 Right toe, GSH 30 mM) was 15.3%.
